Structures can show the parent of a compound that is named as a salt.
Test system: phospholipase A2
Test: Phospholipase A2 inhibition by at least one of two tests: inhibition of rat neutrophil aggregation, inhibition of hog pancreas PLA2
Type: biochemical
Design: key: Compounds that have been found to have a phospholipase A2 inhibitory or antidiabetic effect as determined by at least one of the above assays are indicated in the Examples and Preparations which follow by the notation "PLA2" and/or "diabetes" respectively; Compounds that have been found to have a phospholipase A2 inhibitory or antidiabetic effect as determined by at least one of the above assays are indicated in the Examples and Preparations which follow by the notation "PLA2" and/or "diabetes" respectively
Settings: found in at least one of the assays (rat neutrophil aggregation, FMLP; hog pancreas PLA2)
Experimental: Inhibition of Rat Neutrophil Aggregation
1. Method for Thioglycolate Broth Preparation
Weigh sufficient thioglycolate medium, USP grade, to prepare a 5% w/v solution in sterile water. Heat the solution for 10 minutes on a boiling water bath. Remove and allow the solution to cool to 20°-25°. Inject 10±0.5 ml intraperitoneally into Sprague-Dawley rats as described below.
2. Method for Rat Peritoneal Leukocyte Collection
Six (6) Sprague-Dawley, pathogen free, female rats (230-270 grams) are injected intraperitoneally with 10.0±0.5 ml thioglyco. late broth. 5% w/v […] prior to sacrifice. After sacrifice by cervical dislocation, leukocytes accumulated in the peritoneal cavity are collected by injecting 30 ml of sterile 0.9% w/v sodium chloride intraperitoneally and vigorously massaging the abdomen to assure uniform dispersion of the cells within the carcass. Use a pasteur pipet to remove approximately 20 ml of fluid with suspended cells from a small incision through the abodominal wall. Collect the cell suspension in plastic culture tubes.
3. Washing and Resuspension of Cells for Aggregation
Centrifuge the cell suspensions isolated above for 10 minutes at 1000 rpm (Sorvall RC.3, HG-4L rotor, 25° C.). Discard the supernatant. Resuspend the cells evenly in 0.9% NaCl to original volume, centrifuge a second time for 10 minutes at 1000 rpm. Discard the supernatant. […]

Row | SMILES | phospholipase A2 inhibitory effect (notation "PLA2")
1 | CN(C)CCCO[C@H]1CC[C@H]2[C@@H](CC[C@@H]3[C@@H]2CC[C@]2(C)C(NCCCN)CC[C@@H]32)C1 (stereo partly drawn) [Example 10, N-[(3β,5α)-3-[3-(dimethylamino)propoxy]estran.17-yl]-1,3-diaminopropane] | PLA2
2 | C[C@]12CC[C@H]3[C@@H](CC[C@H]4C[C@@H](OCCCN)CC[C@@H]43)[C@@H]1CCC2=O [Preparation 8, N-(3β,5α)-3-(3-aminopropoxy)estran-17-one] | PLA2

Test system: KKA^y mice with spontaneous diabetes
Test: Blood glucose lowering in the KKA^y mouse
Type: in vivo
Design: key: Compounds that have been found to have a phospholipase A2 inhibitory or antidiabetic effect as determined by at least one of the above assays are indicated in the Examples and Preparations which follow by the notation "PLA2" and/or "diabetes" respectively; Compounds that have been found to have a phospholipase A2 inhibitory or antidiabetic effect as determined by at least one of the above assays are indicated in the Examples and Preparations which follow by the notation "PLA2" and/or "diabetes" respectively
Settings: compound 1 mg/gram of chow, nonfasting blood glucose on day 4 of treatment
Experimental: All KKA^y mice used for screening are produced and selected by methods previously outlined, T. Fujita et al., Diabetes, 32 804-10 (1983). Groups of 6 animals each are employed.
Pre-treatment nonfasting blood glucose (NFBG) samples are measured 5 days prior to the start of a screening run by previously described methodologies. These blood sugar values are used to place animals into groups with equal mean blood glucose concentrations and to eliminate any mice with a NFBG value <250 mg/dl. On day 0, compounds chosen to be run are incorporated into ground mouse chow (Purina 5015). Compounds are included at a rate of 1 mg/gram of chow. Generally, 300 g of drugs containing diet is prepared for each group. Mice receiving ground chow only are the negative control. Each screening run also uses ciglitazone (T. Fujita, et al., supra) as a positive control (0.5 to 1.0 mg/gram chow).
Initial body and food weights are taken on day 1. Food is placed in a crock which contains an adequate amount to last for the length of the study. In order to acclimate the mice from pelleted mouse chow to ground mouse chow, they are fed the ground chow for 9 days prior to use in the screen. On day 4 of treatment, a NFBG sample is again measured, as well as food and body weights. Food consumption measurements are used to determine an average mg/kg dose the mice received over the testing period, and to evaluate the compound's effect on food consumption.
3. Acceptance of a Screening Run and Determination of Activity
Acceptance and activity are determined by the following criteria:
This group must not show a significant change (p<0.05) from pre-to post-treatment. If there is a significant decrease in blood sugar the run is not valid.
This group must show a significant depression in blood sugar mean levels from pre- to post-treatment. A lack of activity in this group would also invalidate the run.
C. Negative Control vs. Positive Control
This contrast must be significant. It is a further assurance that both control groups performed as expected.
A compound's activity is based on several criteria:
(1) A significant decrease in blood sugar mean levels from pre- to post-treatment.
(2) Negative control vs. compound: This contrast allows one to determine if these groups are dissimilar, which is required for the compound to be considered active.

Row | SMILES | antidiabetic effect (notation "diabetes")
3 | COc1ccc2c(c1)CC[C@@H]1[C@@H]2CC[C@]2(C)[C@@H](NCc3cccs3)CC[C@@H]12 [Example 1, 3-Methoxy-17β-[(2-thienylmethyl)amino]-estra-1,3,5-(10)-triene] | diabetes
4 | C=CCOc1ccc2c(c1)CC[C@@H]1[C@@H]2CC[C@]2(C)[C@@H](NCc3cccc(C(F)(F)F)c3)CC[C@@H]12 [Example 2, 3-Allyloxy-17β-[((3-trifluoromethyl)phenylmethyl)-amino-estra-1,3,5(10)-triene Fumarate] | diabetes
5 | C[C@]12CC[C@@H]3c4ccc(OCCCO)cc4CC[C@H]3[C@@H]1CC[C@@H]2NCc1cccc(C(F)(F)F)c1 [Example 3] | diabetes
6 | COc1ccc2c(c1)C[C@@H](C)[C@@H]1[C@@H]2CC[C@]2(C)[C@@H](NCc3cccc(C(F)(F)F)c3)CC[C@@H]12 [Example 4, 3-Methoxy-7α-methyl-17β-[((3-trifluoromethyl)phenylmethyl)amino-estra-1,3,5(10)-triene Fumarate Hydrate] | diabetes
7 | COc1ccc2c(c1)CC[C@@H]1[C@@H]2[C@@H](O)C[C@]2(C)[C@@H](NCc3cccc(C(F)(F)F)c3)CC[C@@H]12 [Example 5] | diabetes
8 | CN(CCc1ccc(S(N)(=O)=O)cc1)[C@H]1CC[C@H]2[C@@H]3CC[C@H]4CCCC[C@]4(C)[C@H]3CC[C@]12C [Example 6] | diabetes
9 | COc1cc2c(cc1C)[C@H]1CC[C@]3(C)[C@@H](NCCc4ccc(S(N)(=O)=O)cc4)CC[C@H]3[C@@H]1CC2 [Example 7] | diabetes
10 | C[C@]12CC=CC[C@@H]1CC[C@@H]1[C@@H]2CC[C@]2(C)[C@@H](NCCc3ccc(S(N)(=O)=O)cc3)CC[C@@H]12 [Example 8] | diabetes

Source: patent publication US5001234A, “Cyclic hydrocarbons with an aminoalkyl sidechain” (The Upjohn Company, priority 1989, dated 1991)
